Legend:
[1] = system: enzymes in the synthesis of aldosterone; assay: inhibition of enzymes in the synthesis of aldosterone (rat adrenal capsule/glomerulosa homogenates, [3H]-DOC substrate); format: biochemical, Sprague-Dawley rats; settings: Conc 10 μM, 1 μM [3H]-DOC, 10-minute assay, 25° C., pH 7.4; for f moles/min/mg: buffer control 246
Experimental: Young male Sprague-Dawley rats were maintained on a sodium-deficient diet for about two weeks prior to use. From these animals, adrenal capsule/glomerulose homogenates were prepared (6 mg/ml) in pH 7.4 assay buffer [MgCl2 8.5 mM, CaCl2 2.7 mM, KCl 3.13 mM, NaCl 7.591 mM, TRIS 50 mM and 0.1% triethylamine]and centrifuged 500xg for 10 minutes.
Assays were conducted in 35 ml glass tubes maintained at 25° C. in a Dubnoff shaker with 95% O2 /5% CO2. The tubes contained the following material: 100 μl of an NADPH^+ generating system, 300 μl of adrenal capsular/glomerulosa cytosol, and 50 μl of test compound or buffer (control). After initial preincubation intervals of 20 minutes, the 10-minute assay was started by the addition of 50 μl of tritium-labelled substrate, i.e., 1 μM [^3 H]-DOC. Reactions were quenched by the addition of 5 ml of ethyl acetate and non-radiolabelled steroids were also added. The samples were extracted twice with 5 ml of ethyl acetate and the solvent evaporated under nitrogen at 30°-40° C.
Residues were redissolved in methanol:water (40:60) with 0.1% triethylamine and high performance liquid chromatography was used to separate products on a Cl8 reverse phase (5 μ ODS-Hypersil) column (4.6×250 mm, Shannon) with a 1 ml/min flow rate using an MeOH:H2 O gradient (solvent A 10/90:solvent B 90/10).
Unchanged substrate and products formed were monitored by UV absorbance at 246 nm and the amount of steroid compound present was quantified by [^3 H]radioactivity. Using this procedure, the following results were observed: […]

rabbits [2] = settings: Auel et al.; cited from earlier work
rabbits [3] = settings: Auel et al.; cited from earlier work; remark: listed apart in the source

SMILES	% Inhibition [1] [%]	f moles/min/mg [1] [f moles/min/mg]	pharmacological activity in the Clauberg test (rabbits [2])	pharmacological activity in the anti-Clauberg test (rabbits [3])
CC(=O)[C@H]1CC[C@H]2[C@@H]3CCC4=CC(=O)CC[C@]4(C)[C@H]3CC[C@]12CC#N [3,20-Dioxopregn-4-ene-18-carbonitrile]	52.5	117	inactive	inactive
CC(=O)[C@H]1CC[C@H]2[C@@H]3CCC4=CC(=O)CC[C@]4(C)[C@H]3[C@@H](O)C[C@]12CC#N [11β-Hydroxy-3,20-dioxopregn-4-ene-18-carbonitrile]	33.3	164	–	–

Reference: patent US4954491A, “Method of treatment using 18-cyanoprogesterone derivatives” (Merrell Dow Pharmaceuticals Inc., priority 1989, dated 1990)
